In assay [1] the test system is 5-HTRs or any other receptor. Nature of the assay: PDSP primary radioligand binding screen, CNS receptor panel. Also noted: dose or concentration left out as unconfirmed. The following applies: data not shown. How it is done: (§1) Prior to screening, cyanobacterial samples are extracted exhaustively in a solution of dichloromethane and methanol, then the extract is subjected to column chromatography using the solvent step gradient illustrated in Figure 1 to create nine fractions. The polarities of the solvents in this step gradient increase linearly with each fraction. A sample of each fraction and the crude is prepared and sent to the NIMH Psychoactive Drug Screening Program (PDSP) for screening against a panel of ~50 receptor including 5-HTRs, DARs, MATs, σRs, and other CNS receptors.
(§2) From the extracts of 37 cyanobacterial field collections from Panama and Curacao, 19 crude extracts and 301 fractions were sent to PDSP for CNS screening. Due to sample size requirements not all fractions created are sent for screening, resulting in a lower number of total fractions screened compared to the theoretical amount of 370 fractions and crudes. […] Data analysis of results from these screens is presented herein.
IC50 determinations/receptor binding profiles were generously provided by the National Institute of Mental Health’s Psychoactive Drug Screening Program, Contract # HHSN-271-2018-00023-C (NIMH PDSP). The NIMH PDSP is Directed by Bryan L. Roth MD, PhD at the University of North Carolina at Chapel Hill and Project Officer Jamie Driscoll at NIMH, Bethesda MD, USA. Detailed information regarding the assay protocol can be found at http://pdspdb.unc.edu/pdspWeb/.

The next assay addresses T1, σ2R (Rattus norvegicus, UniProt Q5U3Y7).
T1 sequence (Q5U3Y7 1-176): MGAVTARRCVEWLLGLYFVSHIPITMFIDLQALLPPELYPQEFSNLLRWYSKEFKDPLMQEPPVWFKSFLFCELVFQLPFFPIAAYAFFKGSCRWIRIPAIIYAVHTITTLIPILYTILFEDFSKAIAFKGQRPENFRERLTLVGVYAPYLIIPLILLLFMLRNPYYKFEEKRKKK
Description: PDSP radioligand competitive binding, σ2R. How it is done:
as §1, §2
(§3) A cyanobacterial biomass collected at Isla Mina, Panama was extracted exhaustively with CH2Cl2-MeOH (2:1) to afford 3.3 g of crude extract given the identification code DUQ0008. This extract was fractionated to yield nine fractions (A–I). The crude extract, along with the nine fractions were submitted to PDSP for screening. […]

A further assay deals with T2, 5-HT2C (Homo sapiens, UniProt P28335).
T2 sequence (P28335 33-458): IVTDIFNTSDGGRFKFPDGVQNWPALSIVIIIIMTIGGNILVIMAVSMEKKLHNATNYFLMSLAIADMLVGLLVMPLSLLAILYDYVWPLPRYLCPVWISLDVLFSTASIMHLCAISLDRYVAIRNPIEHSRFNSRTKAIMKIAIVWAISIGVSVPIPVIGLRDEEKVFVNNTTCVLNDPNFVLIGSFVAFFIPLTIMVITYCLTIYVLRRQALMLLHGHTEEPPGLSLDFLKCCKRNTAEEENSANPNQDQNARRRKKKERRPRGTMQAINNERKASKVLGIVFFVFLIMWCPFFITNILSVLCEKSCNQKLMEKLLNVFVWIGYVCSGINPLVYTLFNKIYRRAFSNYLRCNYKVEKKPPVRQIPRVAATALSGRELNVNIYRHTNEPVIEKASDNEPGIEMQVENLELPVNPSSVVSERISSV
Nature of the assay: PDSP radioligand competitive binding, 5-HT2C. Here is the method:
as §1, §2, §3

Setting [2] is: pure compound resubmitted to PDSP.

From paper PMC6222545, “Evaluating Marine Cyanobacteria as a Source for CNS Receptor Ligands” (Molecules : A Journal of Synthetic Chemistry and Natural …, 2018) come the findings set out here.

Some results are limits rather than exact numbers.

`CCCCCCCCC/C(C)=C/C(C/C=C/CCC(=O)OCC)OC` (stereo not shown) [compound 2]: in assay [1], the “inhibition of radioligand binding at 5-HTRs or any other receptor” value (“inhibition of radioligand binding” for short) is recorded as < 50%.

Consider `CCCCCCC[C@H]1C[C@@H]1CCC(=O)OCC` [compound 3], for which the “inhibition of radioligand binding” value in assay [1] was < 50%.

In general, Ki refers to a measure of affinity in units of concentration, obtained from inhibition or displacement. Take `C#CCCC[C@H]1OC(=O)[C@H](C(C)C)N(C)C(=O)[C@@H]2CCCN2C(=O)[C@H]([C@@H](C)CC)OC(=O)[C@H](C(C)C)N(C)C(=O)[C@H](C(C)C)NC(=O)[C@H]1C` [compound 1, veraguamide C]: the “affinity for the σ2R” value at σ2R (in words) is “moderate and selective affinity”. Further, the Ki was 316 nM at σ2R (setting [2]) and > 10000 nM on 5-HT2C (setting [2]). Moreover, the “inhibition of binding at 5-HT2C” value on 5-HT2C (primary binding, pure compound) was “greater than 50%”.

On to `C=C(CCCCCCCCCCCCC)CCCC(=O)O/C=C/COC(C)=O` [compound 4, propenediester], for which the “inhibition of radioligand binding” value in assay [1] is on record as < 50%.
